Paper PMC4730117, “In vitro Biochemical Characterization of All Barley Endosperm Starch Synthases” (Frontiers in Plant Science, 2016)

Columns and labels:
Experiment in all cases: glycan microarray on nitrocellulose, anti-His detection
[1] = molecular target: T1, HvSSIIa (Hordeum vulgare, UniProt Q8H1Y8); conditions: protein 30 μg/mL in PBS with 5% milk powder; printed oligosaccharide; strong binding
T1 construct: without predicted chloroplast transit peptide, N-terminal His-tag, codon-optimised, E. coli
T1 sequence (Q8H1Y8 61-802): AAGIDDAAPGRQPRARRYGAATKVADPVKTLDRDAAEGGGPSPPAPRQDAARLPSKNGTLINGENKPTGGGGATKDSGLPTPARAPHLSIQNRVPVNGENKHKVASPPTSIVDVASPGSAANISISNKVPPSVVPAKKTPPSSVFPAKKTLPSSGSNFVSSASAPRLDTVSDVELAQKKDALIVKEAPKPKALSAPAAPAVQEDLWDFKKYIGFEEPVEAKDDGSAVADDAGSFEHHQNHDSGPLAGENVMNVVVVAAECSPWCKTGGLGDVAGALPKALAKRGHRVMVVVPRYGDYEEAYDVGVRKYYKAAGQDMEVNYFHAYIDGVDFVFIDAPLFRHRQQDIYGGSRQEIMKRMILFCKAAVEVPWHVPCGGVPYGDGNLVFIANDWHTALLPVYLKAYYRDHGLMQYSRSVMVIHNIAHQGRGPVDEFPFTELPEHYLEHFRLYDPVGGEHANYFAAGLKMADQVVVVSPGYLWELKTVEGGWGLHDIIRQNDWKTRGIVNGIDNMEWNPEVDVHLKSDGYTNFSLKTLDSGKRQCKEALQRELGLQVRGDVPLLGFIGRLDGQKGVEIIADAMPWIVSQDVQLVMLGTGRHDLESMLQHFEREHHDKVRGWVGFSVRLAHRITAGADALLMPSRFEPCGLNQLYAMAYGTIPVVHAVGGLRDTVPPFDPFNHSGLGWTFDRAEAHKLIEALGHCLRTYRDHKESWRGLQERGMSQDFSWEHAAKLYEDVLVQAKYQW

[2] = molecular target: T2, HvSSIV (Hordeum vulgare, UniProt F2CUZ5); conditions: protein 30 μg/mL in PBS with 5% milk powder; printed oligosaccharide; strong binding
T2 construct: without predicted chloroplast transit peptide, C-terminal His-tag, codon-optimised, E. coli
T2 sequence (F2CUZ5 49-914): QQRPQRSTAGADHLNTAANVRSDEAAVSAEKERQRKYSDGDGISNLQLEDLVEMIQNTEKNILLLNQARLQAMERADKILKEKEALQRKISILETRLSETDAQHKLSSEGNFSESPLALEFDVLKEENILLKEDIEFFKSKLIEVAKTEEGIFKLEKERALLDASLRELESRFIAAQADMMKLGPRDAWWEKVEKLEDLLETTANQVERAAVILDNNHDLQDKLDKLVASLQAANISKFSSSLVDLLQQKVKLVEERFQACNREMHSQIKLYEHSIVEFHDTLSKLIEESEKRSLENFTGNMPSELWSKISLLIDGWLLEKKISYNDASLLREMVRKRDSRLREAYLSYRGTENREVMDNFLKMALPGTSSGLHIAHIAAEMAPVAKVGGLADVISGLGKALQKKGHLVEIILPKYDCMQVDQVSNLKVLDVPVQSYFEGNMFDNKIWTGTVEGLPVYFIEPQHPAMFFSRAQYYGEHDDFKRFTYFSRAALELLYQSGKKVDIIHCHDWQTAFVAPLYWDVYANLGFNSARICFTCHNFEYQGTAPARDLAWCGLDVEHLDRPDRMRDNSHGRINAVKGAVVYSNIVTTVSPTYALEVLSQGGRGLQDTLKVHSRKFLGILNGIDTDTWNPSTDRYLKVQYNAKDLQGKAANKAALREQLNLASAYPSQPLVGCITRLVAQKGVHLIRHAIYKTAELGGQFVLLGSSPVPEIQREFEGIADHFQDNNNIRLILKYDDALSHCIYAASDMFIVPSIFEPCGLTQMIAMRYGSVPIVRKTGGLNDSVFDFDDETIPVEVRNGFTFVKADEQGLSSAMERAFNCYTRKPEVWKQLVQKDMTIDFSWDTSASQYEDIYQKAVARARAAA

[3] = molecular target: T3, HvGBSSI (Hordeum vulgare, UniProt P09842); conditions: protein 30 μg/mL in PBS with 5% milk powder; printed oligosaccharide; weaker binding
T3 construct: gene WAXY; without predicted chloroplast transit peptide, N-terminal His-tag, codon-optimised, E. coli
T3 sequence (P09842 71-603): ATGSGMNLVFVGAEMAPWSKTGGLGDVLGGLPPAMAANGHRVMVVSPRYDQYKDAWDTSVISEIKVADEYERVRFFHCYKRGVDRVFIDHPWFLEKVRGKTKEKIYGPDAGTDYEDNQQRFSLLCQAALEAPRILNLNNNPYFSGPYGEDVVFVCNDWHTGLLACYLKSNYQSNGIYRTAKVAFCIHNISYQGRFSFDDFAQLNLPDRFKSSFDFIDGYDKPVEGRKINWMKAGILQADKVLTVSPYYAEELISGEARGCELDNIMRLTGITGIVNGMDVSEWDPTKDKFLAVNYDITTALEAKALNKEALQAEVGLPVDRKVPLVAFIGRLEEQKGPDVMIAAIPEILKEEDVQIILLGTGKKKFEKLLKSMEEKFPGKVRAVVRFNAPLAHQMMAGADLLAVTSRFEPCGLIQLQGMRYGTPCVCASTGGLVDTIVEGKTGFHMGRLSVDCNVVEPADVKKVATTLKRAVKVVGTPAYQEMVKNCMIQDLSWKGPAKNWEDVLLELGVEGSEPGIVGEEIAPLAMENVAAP

[4] = molecular target: T4, CBM53-3 (Hordeum vulgare, UniProt G1FUP7); conditions: protein 30 μg/mL in PBS with 5% milk powder; printed oligosaccharide; strong binding
T4 construct: third CBM53 domain of HvSSIIIa only, C-terminal His-tag, vector pET151, E. coli; borders only in supplement
T4 sequence (G1FUP7 entry or part of it): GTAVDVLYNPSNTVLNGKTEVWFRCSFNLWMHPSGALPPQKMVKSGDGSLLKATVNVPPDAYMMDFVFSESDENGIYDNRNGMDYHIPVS

## O=P(O)(O)O[C@H]1[C@H](O[C@H]2O[C@H](CO)[C@@H](O)[C@H](O)[C@H]2O)[C@@H](CO)OC(O)[C@@H]1O (stereo partly shown) [3-phosphomaltose]
[1]
  glycan microarray on nitrocellulose, anti-His detection: SSIIa, CBM53-3, and SSIV all showed strong binding to 3-phosphomaltose
[2]
  glycan microarray on nitrocellulose, anti-His detection: SSIIa, CBM53-3, and SSIV all showed strong binding to 3-phosphomaltose
[3]
  glycan microarray on nitrocellulose, anti-His detection: while GBSSI showed weaker binding and binding was non-detectable for SSI
[4]
  glycan microarray on nitrocellulose, anti-His detection: SSIIa, CBM53-3, and SSIV all showed strong binding to 3-phosphomaltose
